Assay results from the NIST ThermoML archive (doi:10.1016/j.jct.2005.08.007).
Where “and” joins values, the source holds several entries; their conditions need not be identical. Equal entries are not always repeated. Numbers after ± are expanded uncertainties.

Conditions: Crystal, Calculated from knudsen effusion weight loss

Row | SMILES | vapor or sublimation pressure (305.14 K) | vapor or sublimation pressure (307.15 K) | vapor or sublimation pressure (309.16 K) | vapor or sublimation pressure (311.15 K) | vapor or sublimation pressure (313.15 K) | vapor or sublimation pressure (315.13 K) | vapor or sublimation pressure (317.13 K) | vapor or sublimation pressure (319.17 K) | vapor or sublimation pressure (321.14 K) | vapor or sublimation pressure (361.11 K) | vapor or sublimation pressure (363.08 K) | vapor or sublimation pressure (365.26 K) | vapor or sublimation pressure (367.09 K) | vapor or sublimation pressure (369.04 K) | vapor or sublimation pressure (371.26 K) | vapor or sublimation pressure (373.26 K) | vapor or sublimation pressure (375 K) | vapor or sublimation pressure (377.06 K)
1 | O=[N+]([O-])c1cccc2ccccc12 [1-nitronaphthalene] | 0.0001735 ± 8.7e-06 kPa and 0.0001744 ± 8.7e-06 kPa and 0.0001738 ± 8.7e-06 kPa | 0.0002252 ± 1.1e-05 kPa and 0.0002215 ± 1.1e-05 kPa and 0.000218 ± 1.1e-05 kPa | 0.0002813 ± 1.4e-05 kPa and 0.0002824 ± 1.4e-05 kPa and 0.0002776 ± 1.4e-05 kPa | 0.0003559 ± 1.8e-05 kPa and 0.0003531 ± 1.8e-05 kPa and 0.0003518 ± 1.8e-05 kPa | 0.0004632 ± 2.3e-05 kPa and 0.0004566 ± 2.3e-05 kPa and 0.0004531 ± 2.3e-05 kPa | 0.0005799 ± 2.9e-05 kPa and 0.0005723 ± 2.9e-05 kPa and 0.0005739 ± 2.9e-05 kPa | 0.0006969 ± 3.5e-05 kPa and 0.0007016 ± 3.5e-05 kPa and 0.0006949 ± 3.5e-05 kPa | 0.0008754 ± 4.4e-05 kPa and 0.0008956 ± 4.5e-05 kPa and 0.0008803 ± 4.4e-05 kPa | 0.001127 ± 0.00012 kPa and 0.001114 ± 0.00011 kPa and 0.001108 ± 0.00011 kPa | – | – | – | – | – | – | – | – | –
2 | O=[N+]([O-])c1c2ccccc2cc2ccccc12 [9-nitroanthracene] | – | – | – | – | – | – | – | – | – | 0.00019 ± 1e-05 kPa and 0.000196 ± 1e-05 kPa and 0.000195 ± 1e-05 kPa | 0.000236 ± 1.2e-05 kPa and 0.000238 ± 1.2e-05 kPa | 0.000291 ± 1.5e-05 kPa and 0.000294 ± 1.5e-05 kPa | 0.000354 ± 1.8e-05 kPa and 0.000339 ± 1.7e-05 kPa and 0.000342 ± 1.7e-05 kPa | 0.000431 ± 2.2e-05 kPa and 0.000439 ± 2.2e-05 kPa and 0.000427 ± 2.1e-05 kPa | 0.000532 ± 2.7e-05 kPa and 0.000526 ± 2.6e-05 kPa and 0.000534 ± 2.7e-05 kPa | 0.00064 ± 3.2e-05 kPa and 0.000643 ± 3.2e-05 kPa and 0.000647 ± 3.2e-05 kPa | 0.000772 ± 3.9e-05 kPa and 0.000773 ± 3.9e-05 kPa and 0.000761 ± 3.8e-05 kPa | 0.000928 ± 4.6e-05 kPa and 0.000924 ± 4.6e-05 kPa
